# Test system: MDA-MB-468
# Assay: normalised response (% of control), CellTox Green; higher = less cell death (100 = DMSO, 0 = benzethonium chloride kill control)
# Details: incubation time: 72 h
# Outline: (§1)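 Two readouts were taken after 72 h: CellTox Green fluorescence (485/520 nm) first, then CellTiter-Glo luminescence after 10 min at room temperature. Breast cancer cell lines had been seeded as 20 µl suspension into 384-well plates holding compound at 5 concentrations in 10-fold steps across a compound-specific 10,000-fold range. Each value is a normalised signal at a single concentration, with plates scaled to 0.1 % DMSO (100) and a positive kill control (0).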
row,SMILES,normalised response
1,Cn1cnc2c(F)c(Nc3ccc(Br)cc3F)c(C(=O)NOCCO)cc21 [MEK-162] (10 nM),125%
2,C[C@@H]1CCN(C(=O)CC#N)C[C@@H]1N(C)c1ncnc2[nH]ccc12 [Tofacitinib] (50 nM),127%
3,COc1cccc2c1C(=O)c1c(O)c3c(c(O)c1C2=O)C[C@@](O)(C(C)=O)C[C@@H]3O[C@H]1C[C@H](N)[C@H](O)[C@H](C)O1 [Daunorubicin] (10 nM),90.3%

# Test system: HDQ-P1
# Assay: as above
# Details: incubation time: 72 h
# Outline: as §1
row,SMILES,normalised response
1,CN1CCN(c2ccc3nc(-c4c(N)c5c(F)cccc5[nH]c4=O)[nH]c3c2)CC1 [Dovitinib] (100 nM),115%
2,COc1ccc(C2=N[C@@H](c3ccc(Cl)cc3)[C@@H](c3ccc(Cl)cc3)N2C(=O)N2CCNC(=O)C2)c(OC(C)C)c1 [Nutlin-3] (100 nM),97.3%
3,FC(F)c1nc2ccccc2n1-c1nc(N2CCOCC2)nc(N2CCOCC2)n1 [ZSTK474] (100 nM),101%
4,CS(=O)(=O)OCCCCOS(C)(=O)=O [Busulfan] (1000 nM),83.3%
5,COC(=O)C[C@](O)(CCCC(C)(C)O)C(=O)O[C@@H]1C(OC)=C[C@]23CCCN2CCc2cc4c(cc2[C@H]13)OCO4 [Omacetaxine] (100 nM),100%
6,Cn1cnc2c(F)c(Nc3ccc(Br)cc3F)c(C(=O)NOCCO)cc21 [MEK-162] (10 nM),102%
7,C[C@@H]1CCN(C(=O)CC#N)C[C@@H]1N(C)c1ncnc2[nH]ccc12 [Tofacitinib] (50 nM),114%
8,COc1cccc2c1C(=O)c1c(O)c3c(c(O)c1C2=O)C[C@@](O)(C(C)=O)C[C@@H]3O[C@H]1C[C@H](N)[C@H](O)[C@H](C)O1 [Daunorubicin] (10 nM),106%

# Test system: MFM-223
# Assay: as above
# Details: incubation time: 72 h
# Outline: as §1
row,SMILES,normalised response
1,CN1CCN(c2ccc3nc(-c4c(N)c5c(F)cccc5[nH]c4=O)[nH]c3c2)CC1 [Dovitinib] (100 nM),105%
2,COc1ccc(C2=N[C@@H](c3ccc(Cl)cc3)[C@@H](c3ccc(Cl)cc3)N2C(=O)N2CCNC(=O)C2)c(OC(C)C)c1 [Nutlin-3] (100 nM),95.2%
3,FC(F)c1nc2ccccc2n1-c1nc(N2CCOCC2)nc(N2CCOCC2)n1 [ZSTK474] (100 nM),102%
4,CS(=O)(=O)OCCCCOS(C)(=O)=O [Busulfan] (1000 nM),102%
5,COC(=O)C[C@](O)(CCCC(C)(C)O)C(=O)O[C@@H]1C(OC)=C[C@]23CCCN2CCc2cc4c(cc2[C@H]13)OCO4 [Omacetaxine] (100 nM),48.9%
6,Cn1cnc2c(F)c(Nc3ccc(Br)cc3F)c(C(=O)NOCCO)cc21 [MEK-162] (10 nM),102%
7,C[C@@H]1CCN(C(=O)CC#N)C[C@@H]1N(C)c1ncnc2[nH]ccc12 [Tofacitinib] (50 nM),107%
8,COc1cccc2c1C(=O)c1c(O)c3c(c(O)c1C2=O)C[C@@](O)(C(C)=O)C[C@@H]3O[C@H]1C[C@H](N)[C@H](O)[C@H](C)O1 [Daunorubicin] (10 nM),105%

# Test system: CAL-148
# Assay: as above
# Details: incubation time: 72 h
# Outline: as §1
row,SMILES,normalised response
1,CN1CCN(c2ccc3nc(-c4c(N)c5c(F)cccc5[nH]c4=O)[nH]c3c2)CC1 [Dovitinib] (100 nM),85.1%
2,COc1ccc(C2=N[C@@H](c3ccc(Cl)cc3)[C@@H](c3ccc(Cl)cc3)N2C(=O)N2CCNC(=O)C2)c(OC(C)C)c1 [Nutlin-3] (100 nM),97.2%
3,FC(F)c1nc2ccccc2n1-c1nc(N2CCOCC2)nc(N2CCOCC2)n1 [ZSTK474] (100 nM),100%
4,CS(=O)(=O)OCCCCOS(C)(=O)=O [Busulfan] (1000 nM),96.1%
5,COC(=O)C[C@](O)(CCCC(C)(C)O)C(=O)O[C@@H]1C(OC)=C[C@]23CCCN2CCc2cc4c(cc2[C@H]13)OCO4 [Omacetaxine] (100 nM),83.4%
6,Cn1cnc2c(F)c(Nc3ccc(Br)cc3F)c(C(=O)NOCCO)cc21 [MEK-162] (10 nM),103%
7,C[C@@H]1CCN(C(=O)CC#N)C[C@@H]1N(C)c1ncnc2[nH]ccc12 [Tofacitinib] (50 nM),90.6%
8,COc1cccc2c1C(=O)c1c(O)c3c(c(O)c1C2=O)C[C@@](O)(C(C)=O)C[C@@H]3O[C@H]1C[C@H](N)[C@H](O)[C@H](C)O1 [Daunorubicin] (10 nM),91.5%

# Test system: BT-474
# Assay: as above
# Details: incubation time: 72 h
# Outline: as §1
row,SMILES,normalised response
1,CN1CCN(c2ccc3nc(-c4c(N)c5c(F)cccc5[nH]c4=O)[nH]c3c2)CC1 [Dovitinib] (100 nM),96.5%
2,COc1ccc(C2=N[C@@H](c3ccc(Cl)cc3)[C@@H](c3ccc(Cl)cc3)N2C(=O)N2CCNC(=O)C2)c(OC(C)C)c1 [Nutlin-3] (100 nM),71.6%
3,FC(F)c1nc2ccccc2n1-c1nc(N2CCOCC2)nc(N2CCOCC2)n1 [ZSTK474] (100 nM),102%
4,CS(=O)(=O)OCCCCOS(C)(=O)=O [Busulfan] (1000 nM),100%
5,COC(=O)C[C@](O)(CCCC(C)(C)O)C(=O)O[C@@H]1C(OC)=C[C@]23CCCN2CCc2cc4c(cc2[C@H]13)OCO4 [Omacetaxine] (100 nM),98.3%
6,Cn1cnc2c(F)c(Nc3ccc(Br)cc3F)c(C(=O)NOCCO)cc21 [MEK-162] (10 nM),90.8%
7,C[C@@H]1CCN(C(=O)CC#N)C[C@@H]1N(C)c1ncnc2[nH]ccc12 [Tofacitinib] (50 nM),103%
8,COc1cccc2c1C(=O)c1c(O)c3c(c(O)c1C2=O)C[C@@](O)(C(C)=O)C[C@@H]3O[C@H]1C[C@H](N)[C@H](O)[C@H](C)O1 [Daunorubicin] (10 nM),102%

# Test system: HCC1937
# Assay: as above
# Details: incubation time: 72 h
# Outline: as §1
row,SMILES,normalised response
1,CN1CCN(c2ccc3nc(-c4c(N)c5c(F)cccc5[nH]c4=O)[nH]c3c2)CC1 [Dovitinib] (100 nM),89.1%
2,COc1ccc(C2=N[C@@H](c3ccc(Cl)cc3)[C@@H](c3ccc(Cl)cc3)N2C(=O)N2CCNC(=O)C2)c(OC(C)C)c1 [Nutlin-3] (100 nM),87.5%

# From the supplement of paper PMC4862054
